The source made the active and inactive calls. The calls are words filed in the database; no cut-off is given here.

The term inhibition denotes the change of the read-out against control, counted positive when it falls.

The target of experiment [1] is STE20-related kinase adapter protein alpha (Homo sapiens) (UniProt Q7RTN6). As to the kind of experiment: Inhibition of STLK5 ACT labeling site in human Huh-7 cell lysate at 1 uM by KiNativ Profiling analysis relative to control. It counts as subcellular.
Experiment [2] concerns the target T1, Dual specificity mitogen-activated protein kinase kinase 6 (Homo sapiens) (UniProt P52564).
T1 sequence (whole entry): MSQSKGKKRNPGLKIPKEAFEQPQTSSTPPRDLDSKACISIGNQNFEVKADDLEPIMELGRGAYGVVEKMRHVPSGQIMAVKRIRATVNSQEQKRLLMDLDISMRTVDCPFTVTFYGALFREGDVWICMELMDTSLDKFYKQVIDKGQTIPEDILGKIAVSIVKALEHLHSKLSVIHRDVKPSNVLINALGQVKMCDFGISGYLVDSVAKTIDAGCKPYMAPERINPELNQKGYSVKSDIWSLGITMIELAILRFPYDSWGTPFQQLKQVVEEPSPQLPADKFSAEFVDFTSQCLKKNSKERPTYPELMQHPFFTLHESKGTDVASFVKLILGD
As to the kind of experiment: Inhibition of MAP2K6 ACT labeling site in human Huh-7 cell lysate at 1 uM by KiNativ Profiling analysis relative to control. The experiment is classed as subcellular.

Experiment [3] concerns the target Proto-oncogene tyrosine-protein kinase Src (Homo sapiens, UniProt P12931). The experiment is described as follows: Inhibition of SRC ACT labeling site in human Huh-7 cell lysate at 1 uM by KiNativ Profiling analysis relative to control. The experiment is classed as subcellular.
The target in experiment [4] is Cyclin-dependent kinase 17 (Homo sapiens) (UniProt Q00537). As to the kind of experiment: Inhibition of PCTAIRE2 Lys2 labeling site harbouring DLKPQNLLINEKin human Huh-7 cells at 1 uM by KiNativ Profiling analysis relative to control. The experiment is classed as cell-based.
Experiment [5] addresses T2, Aurora kinase C (Homo sapiens) (UniProt Q9UQB9).
T2 sequence (whole entry): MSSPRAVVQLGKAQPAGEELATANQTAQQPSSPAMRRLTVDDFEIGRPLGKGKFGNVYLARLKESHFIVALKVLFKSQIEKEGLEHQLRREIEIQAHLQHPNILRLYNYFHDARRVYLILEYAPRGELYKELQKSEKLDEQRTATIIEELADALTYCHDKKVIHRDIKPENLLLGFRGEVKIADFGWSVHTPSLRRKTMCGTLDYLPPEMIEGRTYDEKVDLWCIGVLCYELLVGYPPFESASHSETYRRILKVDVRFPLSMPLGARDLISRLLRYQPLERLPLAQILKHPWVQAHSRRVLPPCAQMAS
As to the kind of experiment: Inhibition of AurC ATP labeling site in human Huh-7 cell lysate at 1 uM by KiNativ Profiling analysis relative to control. It counts as subcellular.

Experiment [6] deals with Ribosomal protein S6 kinase alpha-3 (Homo sapiens) (UniProt P51812). As to the kind of experiment: Inhibition of RSK2 domain1 ATP labeling site in human Huh-7 cell lysate at 1 uM by KiNativ Profiling analysis relative to control. It counts as subcellular.
The target in experiment [7] is Ephrin type-B receptor 1 (Homo sapiens) (UniProt P54762). As to the kind of experiment: Inhibition of EPHB1 (unknown origin) at 1 uM by Ambit Kinomescan binding assay relative to control; values are per cent of control.
Experiment [8] concerns the target Mitogen-activated protein kinase 3 (Homo sapiens) (UniProt P27361). As to the kind of experiment: Inhibition of ERK1 (unknown origin) at 1 uM by Ambit Kinomescan binding assay relative to control; values are per cent of control.
Experiment [9] deals with Tyrosine-protein kinase ABL1 (Homo sapiens), P00519 [F317I]. The experiment is described as follows: Inhibition of nonphosphorylated ABL1 F317I mutant (unknown origin) at 1 uM by Ambit Kinomescan binding assay relative to control.
The target of experiment [10] is Dual specificity protein kinase CLK4 (Homo sapiens) (UniProt Q9HAZ1). As to the kind of experiment: Inhibition of CLK4 (unknown origin) at 10 uM by Ambit Kinomescan binding assay.
The target of experiment [11] is T3, Mitogen-activated protein kinase kinase kinase 5 (Homo sapiens) (UniProt Q99683).
T3 sequence (whole entry): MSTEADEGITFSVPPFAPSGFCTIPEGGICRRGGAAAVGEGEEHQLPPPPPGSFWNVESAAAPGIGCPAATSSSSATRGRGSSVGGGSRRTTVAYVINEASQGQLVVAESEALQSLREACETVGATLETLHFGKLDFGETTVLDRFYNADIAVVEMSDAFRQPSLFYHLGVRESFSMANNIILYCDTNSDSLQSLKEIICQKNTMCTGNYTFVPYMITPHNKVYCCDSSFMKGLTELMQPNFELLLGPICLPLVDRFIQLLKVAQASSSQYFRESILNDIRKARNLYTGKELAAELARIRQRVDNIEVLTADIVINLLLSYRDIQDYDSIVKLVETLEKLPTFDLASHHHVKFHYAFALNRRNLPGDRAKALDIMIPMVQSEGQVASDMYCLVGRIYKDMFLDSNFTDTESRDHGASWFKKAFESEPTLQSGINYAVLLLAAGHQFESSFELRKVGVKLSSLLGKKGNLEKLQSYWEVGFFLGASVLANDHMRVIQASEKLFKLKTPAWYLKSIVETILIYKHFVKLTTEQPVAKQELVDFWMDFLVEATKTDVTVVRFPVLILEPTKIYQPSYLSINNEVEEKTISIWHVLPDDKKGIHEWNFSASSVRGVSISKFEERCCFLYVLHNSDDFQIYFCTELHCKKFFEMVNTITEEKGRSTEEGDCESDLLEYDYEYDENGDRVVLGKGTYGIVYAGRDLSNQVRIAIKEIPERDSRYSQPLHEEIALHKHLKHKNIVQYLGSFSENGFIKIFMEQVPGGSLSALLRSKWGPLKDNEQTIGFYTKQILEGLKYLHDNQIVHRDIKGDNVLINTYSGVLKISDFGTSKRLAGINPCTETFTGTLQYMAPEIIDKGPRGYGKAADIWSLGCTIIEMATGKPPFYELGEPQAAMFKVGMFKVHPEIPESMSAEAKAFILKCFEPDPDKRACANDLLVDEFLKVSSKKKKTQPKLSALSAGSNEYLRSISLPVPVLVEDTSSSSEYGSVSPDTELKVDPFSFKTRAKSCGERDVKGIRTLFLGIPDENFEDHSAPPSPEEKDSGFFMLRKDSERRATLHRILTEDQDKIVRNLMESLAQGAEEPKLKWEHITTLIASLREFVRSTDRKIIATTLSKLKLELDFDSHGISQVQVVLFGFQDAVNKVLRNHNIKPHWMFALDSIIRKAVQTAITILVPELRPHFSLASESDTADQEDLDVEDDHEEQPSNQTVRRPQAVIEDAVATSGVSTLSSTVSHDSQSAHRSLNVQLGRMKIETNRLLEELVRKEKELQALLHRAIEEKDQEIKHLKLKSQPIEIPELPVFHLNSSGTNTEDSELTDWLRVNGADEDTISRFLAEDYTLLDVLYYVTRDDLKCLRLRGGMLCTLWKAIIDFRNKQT
As to the kind of experiment: Inhibition of MAP3K5 Lys2 labeling site in human A-375 cells at 0.05 uM by KiNativ Profiling analysis relative to control. It counts as cell-based.

Experiment [12] concerns the target Protein kinase C delta type (Homo sapiens) (UniProt Q05655). As to the kind of experiment: Inhibition of PRKCD (unknown origin) at 10 uM by Ambit Kinomescan binding assay.

Sequence of Ephrin type-B receptor 1 (Homo sapiens) (P54762 whole entry): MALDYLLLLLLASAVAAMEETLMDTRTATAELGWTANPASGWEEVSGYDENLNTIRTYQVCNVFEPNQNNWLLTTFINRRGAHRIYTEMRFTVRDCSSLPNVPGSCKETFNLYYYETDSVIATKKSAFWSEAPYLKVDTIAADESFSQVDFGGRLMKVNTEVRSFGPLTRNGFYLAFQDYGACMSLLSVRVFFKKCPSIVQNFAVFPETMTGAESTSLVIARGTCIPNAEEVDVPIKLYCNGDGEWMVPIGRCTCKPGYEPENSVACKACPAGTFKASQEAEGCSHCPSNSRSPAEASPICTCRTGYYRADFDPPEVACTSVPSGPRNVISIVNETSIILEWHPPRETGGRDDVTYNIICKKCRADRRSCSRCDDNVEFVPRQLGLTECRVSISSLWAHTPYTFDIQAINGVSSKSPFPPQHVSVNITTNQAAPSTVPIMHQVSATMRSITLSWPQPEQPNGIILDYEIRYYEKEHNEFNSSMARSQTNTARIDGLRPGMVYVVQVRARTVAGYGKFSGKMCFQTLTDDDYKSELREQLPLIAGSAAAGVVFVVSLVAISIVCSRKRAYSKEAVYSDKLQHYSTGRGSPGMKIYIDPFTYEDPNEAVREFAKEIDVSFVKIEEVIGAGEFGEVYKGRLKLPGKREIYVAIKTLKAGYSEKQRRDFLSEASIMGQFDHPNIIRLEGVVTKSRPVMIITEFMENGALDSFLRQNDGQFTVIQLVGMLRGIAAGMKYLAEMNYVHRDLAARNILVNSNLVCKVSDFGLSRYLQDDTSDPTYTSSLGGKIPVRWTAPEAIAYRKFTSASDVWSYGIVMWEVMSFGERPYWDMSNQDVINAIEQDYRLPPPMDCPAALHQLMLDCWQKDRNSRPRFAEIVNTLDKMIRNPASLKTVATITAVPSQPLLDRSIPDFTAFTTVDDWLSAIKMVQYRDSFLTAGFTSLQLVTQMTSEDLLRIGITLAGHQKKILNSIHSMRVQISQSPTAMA
Sequence of Mitogen-activated protein kinase 3 (Homo sapiens) (P27361 whole entry): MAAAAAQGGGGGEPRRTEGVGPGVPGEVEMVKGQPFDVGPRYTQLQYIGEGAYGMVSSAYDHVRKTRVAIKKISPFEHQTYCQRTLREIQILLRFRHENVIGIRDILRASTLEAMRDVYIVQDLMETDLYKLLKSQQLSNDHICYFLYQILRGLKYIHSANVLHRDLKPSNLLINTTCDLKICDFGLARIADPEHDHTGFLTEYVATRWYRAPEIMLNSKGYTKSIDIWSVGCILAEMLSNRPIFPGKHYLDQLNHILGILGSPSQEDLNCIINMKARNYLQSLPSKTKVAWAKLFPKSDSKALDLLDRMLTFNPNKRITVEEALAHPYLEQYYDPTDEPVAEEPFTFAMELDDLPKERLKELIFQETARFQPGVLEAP
Sequence of Ribosomal protein S6 kinase alpha-3 (Homo sapiens) (P51812 whole entry, the tested form may be a part): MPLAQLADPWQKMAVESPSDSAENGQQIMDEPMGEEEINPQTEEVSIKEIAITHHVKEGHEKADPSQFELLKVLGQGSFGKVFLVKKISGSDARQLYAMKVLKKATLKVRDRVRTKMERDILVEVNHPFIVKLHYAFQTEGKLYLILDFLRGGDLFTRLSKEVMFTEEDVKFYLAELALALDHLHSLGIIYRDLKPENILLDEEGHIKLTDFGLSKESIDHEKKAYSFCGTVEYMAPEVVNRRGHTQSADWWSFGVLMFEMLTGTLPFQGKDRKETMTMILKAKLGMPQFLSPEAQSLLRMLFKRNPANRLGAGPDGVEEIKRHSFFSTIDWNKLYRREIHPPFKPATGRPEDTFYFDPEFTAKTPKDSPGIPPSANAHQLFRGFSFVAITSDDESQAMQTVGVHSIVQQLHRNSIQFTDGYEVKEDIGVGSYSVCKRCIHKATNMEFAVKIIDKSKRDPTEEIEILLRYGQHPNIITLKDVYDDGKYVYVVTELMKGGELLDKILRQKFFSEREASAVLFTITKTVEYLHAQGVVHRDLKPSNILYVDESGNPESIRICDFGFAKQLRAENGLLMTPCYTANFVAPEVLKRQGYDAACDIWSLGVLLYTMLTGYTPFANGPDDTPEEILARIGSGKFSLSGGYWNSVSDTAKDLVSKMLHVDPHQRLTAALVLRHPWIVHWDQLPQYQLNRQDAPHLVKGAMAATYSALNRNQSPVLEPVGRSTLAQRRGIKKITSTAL
Sequence of STE20-related kinase adapter protein alpha (Homo sapiens) (Q7RTN6 whole entry): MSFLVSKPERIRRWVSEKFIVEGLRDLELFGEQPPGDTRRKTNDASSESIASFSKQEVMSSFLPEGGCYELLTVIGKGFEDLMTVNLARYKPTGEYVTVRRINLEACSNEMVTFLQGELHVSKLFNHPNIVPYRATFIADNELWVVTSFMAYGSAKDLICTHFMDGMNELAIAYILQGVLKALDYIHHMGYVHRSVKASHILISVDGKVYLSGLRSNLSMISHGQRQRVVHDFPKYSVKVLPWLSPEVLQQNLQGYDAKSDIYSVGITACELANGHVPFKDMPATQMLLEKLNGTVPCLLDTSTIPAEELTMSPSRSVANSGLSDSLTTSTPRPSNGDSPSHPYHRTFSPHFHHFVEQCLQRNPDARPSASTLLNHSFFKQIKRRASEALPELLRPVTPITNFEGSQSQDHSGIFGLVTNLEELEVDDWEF
Sequence of Proto-oncogene tyrosine-protein kinase Src (P12931 2-536 limits assumed): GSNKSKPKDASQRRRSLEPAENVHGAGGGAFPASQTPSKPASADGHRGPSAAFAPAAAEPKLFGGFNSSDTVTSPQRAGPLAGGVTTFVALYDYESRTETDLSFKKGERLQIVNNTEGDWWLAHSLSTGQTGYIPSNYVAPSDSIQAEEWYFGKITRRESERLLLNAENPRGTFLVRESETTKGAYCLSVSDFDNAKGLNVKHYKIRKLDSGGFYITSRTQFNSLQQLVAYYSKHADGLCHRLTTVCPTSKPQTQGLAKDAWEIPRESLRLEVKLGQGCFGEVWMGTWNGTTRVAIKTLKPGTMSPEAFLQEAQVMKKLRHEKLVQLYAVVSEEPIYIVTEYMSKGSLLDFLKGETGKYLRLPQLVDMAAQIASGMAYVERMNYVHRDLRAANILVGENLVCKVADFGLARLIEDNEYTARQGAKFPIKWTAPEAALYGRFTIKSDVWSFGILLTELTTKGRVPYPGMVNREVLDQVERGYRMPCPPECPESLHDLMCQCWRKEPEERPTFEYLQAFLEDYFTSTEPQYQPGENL
Sequence of Cyclin-dependent kinase 17 (Homo sapiens) (Q00537 whole entry, looked up): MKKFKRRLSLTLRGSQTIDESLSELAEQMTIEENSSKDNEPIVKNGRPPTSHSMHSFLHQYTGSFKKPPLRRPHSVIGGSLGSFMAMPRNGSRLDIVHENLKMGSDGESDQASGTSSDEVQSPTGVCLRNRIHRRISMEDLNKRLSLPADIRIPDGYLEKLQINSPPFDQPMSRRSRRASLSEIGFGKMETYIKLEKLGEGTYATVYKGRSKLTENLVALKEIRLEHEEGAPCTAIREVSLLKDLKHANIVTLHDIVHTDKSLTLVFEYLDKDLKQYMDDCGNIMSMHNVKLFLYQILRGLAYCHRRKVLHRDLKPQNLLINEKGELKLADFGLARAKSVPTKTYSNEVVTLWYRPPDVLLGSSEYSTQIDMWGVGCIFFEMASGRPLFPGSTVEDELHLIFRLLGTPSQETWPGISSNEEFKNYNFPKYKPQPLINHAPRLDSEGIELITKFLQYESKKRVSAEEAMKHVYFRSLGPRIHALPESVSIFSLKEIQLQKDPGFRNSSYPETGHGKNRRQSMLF
Sequence of Dual specificity protein kinase CLK4 (Homo sapiens) (Q9HAZ1 whole entry, looked up): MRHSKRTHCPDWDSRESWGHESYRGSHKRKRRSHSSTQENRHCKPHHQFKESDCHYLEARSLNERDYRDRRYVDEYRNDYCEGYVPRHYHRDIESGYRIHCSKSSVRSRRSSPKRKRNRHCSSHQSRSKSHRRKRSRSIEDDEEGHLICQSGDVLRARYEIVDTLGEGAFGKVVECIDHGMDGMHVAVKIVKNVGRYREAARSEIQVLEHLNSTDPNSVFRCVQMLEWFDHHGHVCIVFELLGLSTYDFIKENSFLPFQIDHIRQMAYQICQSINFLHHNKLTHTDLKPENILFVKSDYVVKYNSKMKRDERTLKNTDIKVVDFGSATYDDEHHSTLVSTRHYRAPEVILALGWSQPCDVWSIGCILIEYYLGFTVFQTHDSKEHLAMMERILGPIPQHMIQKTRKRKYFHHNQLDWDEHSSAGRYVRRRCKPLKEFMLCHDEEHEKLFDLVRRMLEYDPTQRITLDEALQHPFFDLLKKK
Sequence of Protein kinase C delta type (Homo sapiens) (Q05655 whole entry, looked up): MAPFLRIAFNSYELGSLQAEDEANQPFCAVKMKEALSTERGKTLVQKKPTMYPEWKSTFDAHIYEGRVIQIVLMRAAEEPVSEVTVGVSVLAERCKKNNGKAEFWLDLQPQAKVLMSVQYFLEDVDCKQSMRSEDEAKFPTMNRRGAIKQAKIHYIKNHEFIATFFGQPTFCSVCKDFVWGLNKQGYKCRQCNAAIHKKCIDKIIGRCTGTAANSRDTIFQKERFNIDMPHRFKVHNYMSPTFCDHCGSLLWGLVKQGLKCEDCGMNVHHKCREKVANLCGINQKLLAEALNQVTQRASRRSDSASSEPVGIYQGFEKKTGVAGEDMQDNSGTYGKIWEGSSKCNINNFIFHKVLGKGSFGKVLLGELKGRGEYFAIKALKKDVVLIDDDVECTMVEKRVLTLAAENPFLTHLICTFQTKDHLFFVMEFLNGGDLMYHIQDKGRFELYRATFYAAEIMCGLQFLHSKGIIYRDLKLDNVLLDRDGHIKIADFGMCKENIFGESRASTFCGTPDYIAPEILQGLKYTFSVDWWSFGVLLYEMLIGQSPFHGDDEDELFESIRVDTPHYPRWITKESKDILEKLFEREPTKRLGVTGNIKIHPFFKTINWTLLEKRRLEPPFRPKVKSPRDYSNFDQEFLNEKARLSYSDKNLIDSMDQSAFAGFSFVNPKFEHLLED

With `CNc1cc(Oc2cc(C(=O)Nc3cc(N4CCN(C)CC4)cc(C(F)(F)F)c3)ccc2C)ncn1`, the inhibition in [1] is 5.3%; in [2], -1.2%; in [3], 22%; in [4], -2.1%; in [5] it was 2.5%; in experiment [6], -2.6%.

For `CCN1CCN(Cc2ccc(NC(=O)c3ccc(C)c(/C=C/c4cnc5[nH]ccc5c4OC)c3)cc2C(F)(F)F)CC1`, the residual activity in [7] came out at 11%; in [8], 100%. In addition, in experiment [9], the inhibition was 19%.

Turning to `CCN1CCN(Cc2ccc(NC(=O)c3ccc(C)c(Oc4ccnc5[nH]ccc45)c3)cc2C(F)(F)F)CC1`, the inhibition entry in [10] and in experiment [12] was “inactive” throughout. Further, the inhibition in experiment [11] is -6.6%.

Source of the values: ChEMBL document CHEMBL5696442, “Discovery of type II inhibitors of TGFβ-activated kinase 1 (TAK1) and mitogen-activated protein kinase kinase kinase kinase 2 (MAP4K2)” (J Med Chem, 2015).
